Test results: patent US20240252654A1, “IMPROVED SMALL MOLECULES” (University of Dundee, priority 2020, published 2024)

Legend:
22Rv1 cells [1] = test: Caspase-Glo 3/7 assay; assay type: cell-based; details: 22Rv1, 24 h
Procedure: Caspase-Glo® 3/7 assays. 22Rv1 cells were seeded at 10,000 cells/well of white 96 well plates (Corning #3917) 12-24 h before treatment with test compounds with and without inhibitors or an equivalent volume of DMSO for 24 h. 100 μL/well of Caspase-Glo@ 3/7 Reagent (Promega) was added and the plate shaken at 500 rpm for 30 seconds. The plate was incubated for 2 h and luminescence measured using a PHERAstar FS plate reader (BMG Labtech).

BRD2, BRD3 and BRD4 = test: Immunoblot degradation of BET proteins in HEK293 cells; assay type: cell-based, human
Procedure: To evaluate the ability of trivalent compounds to induce intracellular degradation of BET proteins, the inventors first treated human HEK293 cells for 4 hours at 1 μM concentration and assessed levels of BRD2, BRD3 and BRD4 by western blot. […] To confirm the greater activity of VHL-based compounds compared to CRBN-based PROTACs they next used live cell continual luminescent monitoring of CRISPR/Cas9 endogenously tagged HiBiT-BRD4 in HEK293 cells over 24 h^29,31. […] To confirm greater potency of VHL-based compounds, the inventors evaluated growth inhibition profiles of BET-sensitive cancer cell lines MV4; 11 (FIG. 1f), A549 and HL-60 (FIG. 6c) with compound treatments. […] Together, the initial screens support greater activity of structure-guided designed VHL degraders over their homologous CRBN molecules.
(§1) Degradation assays. MV4; 11 cells were seeded at 1×10^6 cells/mL of 10 cm dishes 12-24 h before treatment. 22Rv1 and HEK293 cells were seeded at 2.5-6×10^5 cells/well of 6 well plates 12-24 h before treatment. Cells were treated with test compounds with and without inhibitors as indicated or an equivalent volume of DMSO and lysed at the stated time point. For lysis, cells were washed twice in ice cold PBS (Invitrogen) then lysed in 250 μL/plate for MV4; 11 cells or 80 μL/well for 22Rv1 and HEK293 cells of ice cold lysis buffer containing 50 mM Tris hydrochloride pH 7.4, 150 mM sodium chloride, 1 mM EDTA pH 7.4, 1% v/v Triton X-100, 1×Halt™ Protease Inhibitor Cocktail (ThermoFisher). Lysates were sonicated, cleared by centrifugation at 4° C., at 15800×g for 10 mins and the supernatants stored at −80° C. Protein concentration was determined by BCA assay (Pierce) and the absorbance at 562 nm measured by spectrophotometry (NanoDrop ND1000). […] Bands were detected using a ChemiDoc MP imaging system (BioRad) and quantified (Image Studio Lite, version 5.2) with normalisation to β-actin and the DMSO control per time point. […]

[2] = system: HiBiT-BRD2, BRD3, and BRD4; test: Degradation washout experiment, CRISPR HiBiT-BET HEK293 cells; assay type: cell-based, human; details: 100 nM for 3.5 h then washout, monitored 50 h
Procedure: Media containing the 10 nM and/or 100 nM compounds was removed at 3.5 h, indicated on the graphs, and replaced with media lacking compounds for the remainder of the experiment. Luminescence (RLU) was continuously monitored over a 50 h time period and is plotted normalized to the DMSO control as Fractional RLU.
To assess whether the trivalent PROTAC induced also a more sustained degradation of BET proteins in cells compared to MZ1 or (R,S)-SIM1, degradation washout experiments were performed. CRISPR HiBiT-BET HEK293 cells were treated with equivalent concentration (100 nM) of SIM1, (R,S)-SIM1 and MZ1 compounds for 3.5 h, then media was removed and replaced with media lacking compounds. […] The HiBiT-BET protein levels were continuously monitored from the initial addition of the compounds and immediately after the wash for a total time of 50 h.

22Rv1 cells [3] = test: PARP cleavage immunoblot in 22Rv1 cells; assay type: cell-based; details: 22Rv1, 10 nM, 24 h (MT1, MZ1 up to 48 h)
Procedure: Next, the inventors assessed the functional effects of SIM1 on the viability of 22Rv1 cancer cells. […] Cells died of apoptosis as indicated by prevented cleavage of PARP upon co-treatment with QVD-OPh, a pan-caspase inhibitor, and not of necroptosis, as shown by co-treatment with Necrostatin-1 (FIG. 3d and FIG. 10a).
as §1, with “Lysates were sonicated, cleared by centrifugation at 4° C., at 15800×g for 10 mins and the supernatants stored at −80° C.” left out

HiBiT-BRD4 [4] = molecular target: T1, HiBiT-BRD4 (Homo sapiens, UniProt O60885); test: NanoBRET target engagement, permeabilized and live cells; assay type: cell-based; details: for IC80: live cell format, unit given with each value, read-out: IC80 for tracer displacement
T1 construct: endogenously HiBiT tag the N-terminal genomic loci of BRD2, BRD3, or BRD4; endogenous in cells; host or cells: HEK293 stably expressing LgBiT, CRISPR/Cas9 edited
Procedure: Cells were treated with a fluorescent BET tracer, then incubated with the indicated compounds at various concentrations to measure competitive displacement.
(§2) NanoBRET Target Engagement and Residence Time. For target engagement experiments in live and permeabilized cells, CRISPR HiBiT-BRD4 HEK293 cells stably expressing LgBiT were plated into white 96-well tissue culture plates at a density of 2×10^4 cells/well. Cells were equilibrated for 1 h with energy transfer probes and the indicated test compound prior to NanoBRET measurements. NanoBRET tracers were prepared at a working concentration of 20× in tracer dilution buffer (12.5 mM HEPES, 31.25% PEG-400, pH 7.5). NanoBRET BRD Tracer-02 was added to cells at a final concentration of 0.5 μM. To measure NanoBRET in live cells, NanoBRET NanoGlo Substrate and Extracellular NanoLuc Inhibitor (Promega) were added according to the manufacturer's recommended protocol, and filtered luminescence was measured on a GloMax Discover luminometer equipped with 450 nm BP filter (donor) and 600 nm LP filter (acceptor) using 0.3 s integration time. To measure NanoBRET in permeabilized cells, digitonin was added to the cells to a final concentration of 50 μg/mL and Extracellular NIuc inhibitor was omitted during the detection step. […] Cells were incubated in 15 mL conical tubes with caps loosened in a tissue culture incubator for 1 h. Following incubation, cells were spun at 300×g for 5 min, washed once with Opti-MEM, spun a second time at 300×g for 5 min, then resuspended with fresh Opti-MEM before plating at 2×10^4 cells/well. NanoBRET BRD Tracer-02 was added at a final concentration of 0.5 μM cells and kinetic NanoBRET measurements were collected on a GloMax Discover. NanoBRET ratios were expressed in milliBRET units and calculated according to the equation in the NanoBRET Ubiquitination, Ternary Complex and Biosensor Experiments section.

HiBiT-BRD4 [5] = molecular target: T1, HiBiT-BRD4; test: NanoBRET live cell residence time; assay type: cell-based; details: live cells
Procedure: as §2

MV4; 11 cells = test: Correlative cell viability in cMyc-HiBiT MV4;11 cells (CellTiter-Glo); assay type: cell-based; details: 1 nM, after 6 h
Procedure: Monitoring cMyc Loss and Cell Viability in MV4; 11 Cells. CRISPR cMyc-HiBiT MV4; 11 cells (Promega) were plated at a density of 5×10^4 cells per well in solid, white 96-well tissue culture plates (Corning Costar #3917). Following an overnight incubation, they were treated with 1-100 nM concentration of the indicated compounds and at the plotted time points, cMyc levels were determined using luminescent measurement with NanoGlo HiBiT lytic reagent (Promega). Replicate plate of all compound treatments were prepared and at identical timepoints as the protein level measurements, cell viability was measured using Cell-Titer Glo (Promega). Plates were shaken on an orbital shaker for 10-20 min before reading luminescence on a GloMax Discover Microplate Reader (Promega).

[6] = system: VHL and full-length BRD4 WT, N140F, or N433F; test: Kinetic NanoBRET ternary complex assay, NanoLuc-BRD4 with HaloTag-VHL; assay type: cell-based, human
Procedure: NanoBRET Ubiquitination, Ternary Complex, and Biosensor Experiments. For endogenous live cell BET:Ubiquitin and BET:VHL assays, CRISPR HiBiT-BRD2, HiBiT-BRD3, and HiBiT-BRD4 HEK293 cells stably expressing LgBiT were transfected with 2 μg of HaloTag-UBB or HaloTag-VHL vectors in 6-well plates using FuGENE HD (Promega). For full transient NanoBRET experiments with NanoLuc-BRD4 WT, N433F, or N140F mutants, HEK293 cells (8×10^5) were co-transfected with 0.02 μg NanoLuc-BRD4 and 2 μg of HaloTag-VHL vectors. For transient NanoBRET experiments with the BRD4 NL-BD1-BD2-HT biosensor containing either the WT tandem BD1-BD2 domain (AA 44-460) or containing the N433F mutation, HEK293 cells (8×10^5) were transfected with 0.02 μg biosensor plasmid and 2 μg carrier DNA. […] NanoBRET NanoGlo (Promega) substrate was added and BRET was measured two hours post-compound treatment using a GloMax Discover Microplate Reader (Promega). Dual filtered luminescence was collected with a 460/80 nm bandpass filter and a 610 nm long pass filter (acceptor, HaloTag NanoBRET ligand) using an integration time of 0.5 s. For all NanoBRET experiments, background subtracted NanoBRET ratios expressed in milliBRET units were calculated from the equation: […]

## Cc1ncsc1-c1ccc([C@H](C)NC(=O)[C@@H]2C[C@@H](O)CN2C(=O)[C@@H](NC(=O)COCCCOCCNC(=O)C[C@@H]2N=C(c3ccc(Cl)cc3)c3c(sc(C)c3C)-n3c(C)nnc32)C(C)(C)C)cc1 [ARV-771]
22Rv1 cells [1]
  EC50: 90 nM

## Cc1ncsc1-c1ccc(CNC(=O)[C@@H]2C[C@@H](O)CN2C(=O)[C@@H](NC(=O)COCCOCCOCCNC(=O)C[C@@H]2N=C(c3ccc(Cl)cc3)c3c(sc(C)c3C)-n3c(C)nnc32)C(C)(C)C)cc1 [MZ1]
BRD2, BRD3 and BRD4; immunoblot, 4 h
  preference of degradation among BET proteins: […]
BRD2, BRD3 and BRD4; immunoblot, 4 h treatment, across all the BET proteins
  DC50: […]
[2]
  BET protein level after washout: greater and occurred faster than those observed with SIM1
22Rv1 cells [3]
  PARP cleavage / cell death: did not cause observable PARP cleavage
22Rv1 cells [1]
  EC50: 150 nM
HiBiT-BRD4 [4]
  IC80: 10000 nM
HiBiT-BRD4 [5]
  residence time on BRD4: residence time between the monovalent and bivalent BET inhibitors

## Cc1ncsc1-c1ccc(CNC(=O)[C@@H]2C[C@@H](O)CN2C(=O)[C@@H](NC(=O)COCC(C)(COCCOCCOCCNC(=O)C[C@@H]2N=C(c3ccc(Cl)cc3)c3c(sc(C)c3C)-n3c(C)nnc32)COCCOCCOCCNC(=O)C[C@H]2N=C(c3ccc(Cl)cc3)c3c(sc(C)c3C)-n3c(C)nnc32)C(C)(C)C)cc1 (stereo partly drawn) [(R,S)-SIM1]
BRD2, BRD3 and BRD4; HEK293 cells, 1 μM, 4 h
  degradation of BRD2, BRD3 and BRD4 by western blot: behave similarly to MZ1 and less potently than SIM1
[2]
  BET protein level after washout: greater and occurred faster than those observed with SIM1

## Cc1ncsc1-c1ccc(CNC(=O)[C@@H]2C[C@H](O)CN2C(=O)[C@@H](NC(=O)COCC(C)(COCCOCCOCCNC(=O)C[C@@H]2N=C(c3ccc(Cl)cc3)c3c(sc(C)c3C)-n3c(C)nnc32)COCCOCCOCCNC(=O)C[C@@H]2N=C(c3ccc(Cl)cc3)c3c(sc(C)c3C)-n3c(C)nnc32)C(C)(C)C)cc1 [cis-SIM1, N,N′-(11-((2-(((S)-1-((2S,4S)-4-hydroxy-2-((4-(4-methylthiazol-5-yl)benzyl)carbamoyl)pyrrolidin-1-yl)-3,3-dimethyl-1-oxobutan-2-yl)amino)-2-oxoethoxy)methyl)-11-methyl-3,6,9,13,16,19-hexaoxahenicosane-1,21-diyl)bis(2-((S)-4-(4-chlorophenyl)-2,3,9-trimethyl-6H-thieno[3,2-f][1,2,4]triazolo[4,3-a][1,4]diazepin-6-yl)acetamide)]
MV4; 11 cells
  measurable cellular death: not
HiBiT-BRD4 [4]; inferred from live versus permeabilized cells
  cell permeability: readily cell-permeable
HiBiT-BRD4 [4]
  IC80: 100 nM
HiBiT-BRD4 [4]; live cells
  shift of binding affinity to BRD4 compared to MT1: 10 ×
HiBiT-BRD4 [4]; permeabilized cells
  binding to endogenous HiBiT-BRD4: near-identical binding affinities and IC50 values
HiBiT-BRD4 [5]
  residence time on BRD4: identical displacement kinetics as MT1
[6]
  ternary complex formation: not
